According to PubChem BioAssay (NCI):
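A five-concentration, 48-hour dose response in 96-well plates underlies each endpoint, interpolated linearly between surrounding concentrations. The concentration for 50% growth inhibition is given as GI50. The concentration for full growth arrest is given as TGI.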

Columns and labels:
Experiment in all cases: NCI anticancer screen, dose series, 48 h
[1] = test system: MOLT-4 leukemia
[2] = test system: A549 NSCLC
[3] = test system: PC-3 prostate
[4] = test system: NCI-H522 lung
[5] = test system: HCC-2998 colon
[6] = test system: SW-620 colon
[7] = test system: SK-OV-3 ovarian
[8] = test system: SK-MEL-2 melanoma
[9] = test system: OVCAR-4 ovarian
[10] = test system: HCT-15 colon
[11] = test system: RXF 393 renal
[12] = test system: SK-MEL-28 melanoma
[13] = test system: COLO 205 colon
[14] = test system: MDA-MB-435
[15] = test system: NCI/ADR-RES ovarian
[16] = test system: NCI-H23 lung
[17] = test system: SK-MEL-5 melanoma
[18] = test system: SNB-19 CNS
[19] = test system: K-562 leukemia
[20] = test system: IGROV1 ovarian
[21] = test system: HOP-62 NSCLC
[22] = test system: SNB-75 CNS
[23] = test system: HCT-116 colon
[24] = test system: SN12C renal
[25] = test system: KM12 colon
[26] = test system: HS 578T breast
[27] = test system: OVCAR-5 ovarian
[28] = test system: OVCAR-8 ovarian
[29] = test system: UO-31 renal
[30] = test system: UACC-257 melanoma
[31] = test system: CCRF-CEM leukemia
[32] = test system: UACC-62 melanoma
[33] = test system: TK-10 renal
[34] = test system: T-47D breast
[35] = test system: SF-268 CNS
[36] = test system: BT-549 breast
[37] = test system: NCI-H226 lung
[38] = test system: CAKI-1 renal
[39] = test system: ACHN renal
[40] = test system: MCF7 breast
[41] = test system: MDA-MB-231 breast
[42] = test system: HL-60(TB) leukemia
[43] = test system: SR leukemia
[44] = test system: DU-145 prostate
[45] = test system: NCI-H460 lung
[46] = test system: SF-295 CNS
[47] = test system: OVCAR-3 ovarian
[48] = test system: 786-0 renal
[49] = test system: SF-539 CNS
[50] = test system: MALME-3M melanoma
[51] = test system: RPMI-8226 leukemia
[52] = test system: A498 renal
[53] = test system: M14 melanoma
[54] = test system: U251 CNS
[55] = test system: HT29 colon
[56] = test system: LOX IMVI melanoma

## COc1ccc(/C(C#N)=C/c2cc(OC)c(OC)c(OC)c2)cc1
[1]
  GI50: 20.2 µM
  TGI: 66 µM
[2]
  GI50: 23.6 µM
  TGI: > 100 µM
[3]
  GI50: 15.6 µM
  TGI: 67.9 µM
[4]
  GI50: 15.7 µM
  TGI: 56.3 µM
[5]
  GI50: 23.1 µM
  TGI: > 100 µM
[6]
  GI50: 13.6 µM
  TGI: > 100 µM
[7]
  GI50: 35.8 µM
  TGI: > 100 µM
[8]
  GI50: 21.9 µM
  TGI: 82.2 µM
[9]
  GI50: 38.4 µM
  TGI: > 100 µM
[10]
  GI50: 7.96 µM
  TGI: > 100 µM
[11]
  GI50: 20.6 µM
  TGI: > 100 µM
[12]
  GI50: 27.4 µM
  TGI: > 100 µM
[13]
  GI50: 20.1 µM
  TGI: 64.8 µM
[14]
  GI50: 2.19 µM
  TGI: 12.5 µM
[15]
  GI50: 13.2 µM
  TGI: 65.1 µM
[16]
  GI50: 20.1 µM
  TGI: 88.4 µM
[17]
  GI50: 10.7 µM
  TGI: 28.7 µM
[18]
  GI50: 28 µM
  TGI: > 100 µM
[19]
  GI50: 4.64 µM
  TGI: 31.3 µM
[20]
  GI50: 29.2 µM
  TGI: > 100 µM
[21]
  GI50: 34.3 µM
  TGI: > 100 µM
[22]
  GI50: 11.6 µM
  TGI: 87.7 µM
[23]
  GI50: 22.9 µM
  TGI: > 100 µM
[24]
  GI50: 27.2 µM
  TGI: > 100 µM
[25]
  GI50: 12.7 µM
  TGI: > 100 µM
[26]
  GI50: 38.7 µM
  TGI: > 100 µM
[27]
  GI50: 35.3 µM
  TGI: > 100 µM
[28]
  GI50: 30.7 µM
  TGI: > 100 µM
[29]
  GI50: 15.3 µM
  TGI: 68.8 µM
[30]
  GI50: 31 µM
  TGI: > 100 µM
[31]
  GI50: 22.1 µM
  TGI: 78.6 µM
[32]
  GI50: 14.1 µM
  TGI: > 100 µM
[33]
  GI50: 37.4 µM
  TGI: > 100 µM
[34]
  GI50: 17 µM
  TGI: 67.6 µM
[35]
  GI50: 39.6 µM
  TGI: > 100 µM
[36]
  GI50: 21.1 µM
  TGI: 70 µM
[37]
  GI50: 29.1 µM
  TGI: > 100 µM
[38]
  GI50: 20.1 µM
  TGI: > 100 µM
[39]
  GI50: 23.5 µM
  TGI: > 100 µM
[40]
  GI50: 11.1 µM
  TGI: > 100 µM
[41]
  GI50: 14.1 µM
  TGI: > 100 µM
[42]
  GI50: 13.2 µM
  TGI: 56.5 µM
[43]
  GI50: 3.36 µM
  TGI: 41.5 µM
[44]
  GI50: 40.1 µM
  TGI: > 100 µM
[45]
  GI50: 29.6 µM
  TGI: > 100 µM
[46]
  GI50: 15 µM
  TGI: 41.9 µM
[47]
  GI50: 33.8 µM
  TGI: > 100 µM
[48]
  GI50: 41.3 µM
  TGI: > 100 µM
[49]
  GI50: 16.1 µM
  TGI: 58 µM
[50]
  GI50: 7.68 µM
  TGI: 56.7 µM
[51]
  GI50: 16.6 µM
  TGI: 56.1 µM
[52]
  GI50: 22.7 µM
  TGI: > 100 µM
[53]
  GI50: 19.3 µM
  TGI: > 100 µM
[54]
  GI50: 26.2 µM
  TGI: > 100 µM
[55]
  GI50: 11.8 µM
  TGI: 85.8 µM
[56]
  GI50: 22.2 µM
  TGI: > 100 µM
